The values below are quoted from earlier work in patent publication US7691423B2, “Method of treating inflammation disorders using extracts of passion fruit” (priority 2005, dated 2010).

For data set [1], the system named is spontaneously hypertensive rat (SHR) cells. As to conditions: SHR cells in vitro.

On to `O=c1ccc2cc(O)c(O)cc2o1` [esculetin], for which the “Large dose acetylcholine-induced vascular contraction” value in the data set on vascular contraction is given as “inhibited”.

As to `O=c1c(O)c(-c2ccc(O)cc2)oc2cc(O)cc(O)c12` [kaempferol], in data set [1], the “NOLA-dependent spontaneous aortic ring contraction” value is “inhibit”. Besides, the “Large dose acetylcholine-induced vascular contraction” value in the data set with vascular contraction is “inhibited”.

As to `O=c1c(O)c(-c2ccc(O)c(O)c2)oc2cc(O)cc(O)c12` [quercetin], the “NOLA-dependent spontaneous aortic ring contraction” value in data set [1] is given as “inhibit”. For the same compound, in the data set with vascular contraction, the “Large dose acetylcholine-induced vascular contraction” value is reported as “inhibited”. In addition, the “iNOS mRNA and the production of nitric oxide” value in the data set on iNOS was “inhibit”.
